One assay addresses T1, A3 AR (Homo sapiens, UniProt P0DMS8).
T1 sequence (P0DMS8 1-318): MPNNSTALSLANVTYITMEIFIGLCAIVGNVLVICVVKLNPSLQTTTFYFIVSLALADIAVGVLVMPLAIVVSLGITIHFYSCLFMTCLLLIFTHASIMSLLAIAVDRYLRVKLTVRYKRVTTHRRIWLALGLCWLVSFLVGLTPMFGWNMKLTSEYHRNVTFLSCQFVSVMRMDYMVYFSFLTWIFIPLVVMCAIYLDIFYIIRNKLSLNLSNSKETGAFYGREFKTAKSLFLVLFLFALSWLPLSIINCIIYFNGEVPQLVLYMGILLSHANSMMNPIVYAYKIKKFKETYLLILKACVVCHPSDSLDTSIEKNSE
Put plainly: Radioligand competition binding (125I-ABA) to human A3 AR in HEK 293 cell membranes. Particulars: for Ki: Ki from competition binding, 125I-ABA, HEK 293 cell membranes; for A3/A2A: selectivity ratio A3 over A2A.

The target of assay [1] is recombinant human A2A receptors (Homo sapiens, UniProt P29274). Put plainly: Radioligand competition binding to recombinant human A2A receptors in Sf9 cell membranes. Particulars: Ki from competition binding, Sf9 cell membranes. A general note: Loss of bound radioactivity is the signal in a displacement assay; it reports binding, not function.
Chain of recombinant human A2A receptors (P29274 whole entry): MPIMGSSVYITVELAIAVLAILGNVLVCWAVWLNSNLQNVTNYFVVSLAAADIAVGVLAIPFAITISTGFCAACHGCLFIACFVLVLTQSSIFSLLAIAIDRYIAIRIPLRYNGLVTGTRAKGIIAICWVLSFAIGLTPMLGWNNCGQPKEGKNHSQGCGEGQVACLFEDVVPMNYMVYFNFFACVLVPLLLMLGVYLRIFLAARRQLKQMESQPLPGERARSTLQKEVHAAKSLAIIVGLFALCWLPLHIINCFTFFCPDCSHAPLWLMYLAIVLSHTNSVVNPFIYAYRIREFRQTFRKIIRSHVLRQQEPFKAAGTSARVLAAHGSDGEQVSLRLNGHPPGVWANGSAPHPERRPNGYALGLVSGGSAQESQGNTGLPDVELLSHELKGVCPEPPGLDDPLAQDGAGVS
The test system of a further assay is human neutrophils. Briefly: Human neutrophil oxidative activity, luminol-enhanced chemiluminescence. The note with it: for PMN oxid + roli (-log EC50): human neutrophil experiment w/Rolipram; for PMN oxid (-log EC50) / EC50: human neutrophil experiment w/o Rolipram; for EC50: Homo sapiens, Neutrophil, read-out: PMN oxid (-log EC50) (converted). The class given is cell-based. Put shortly: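 Purified human neutrophils (5–10×10^5/ml) pre-incubated 30 min at 37 °C with the A2A agonist, ± rolipram and ± TNF-α (1 U/ml), then stimulated with fMLP (1 μM final). Peak luminol-enhanced chemiluminescence expressed as percent of no-agonist control. EC50 from three donors.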

Another assay addresses T2, human A1 AR (Homo sapiens, UniProt P30542).
T2 sequence (P30542 1-326): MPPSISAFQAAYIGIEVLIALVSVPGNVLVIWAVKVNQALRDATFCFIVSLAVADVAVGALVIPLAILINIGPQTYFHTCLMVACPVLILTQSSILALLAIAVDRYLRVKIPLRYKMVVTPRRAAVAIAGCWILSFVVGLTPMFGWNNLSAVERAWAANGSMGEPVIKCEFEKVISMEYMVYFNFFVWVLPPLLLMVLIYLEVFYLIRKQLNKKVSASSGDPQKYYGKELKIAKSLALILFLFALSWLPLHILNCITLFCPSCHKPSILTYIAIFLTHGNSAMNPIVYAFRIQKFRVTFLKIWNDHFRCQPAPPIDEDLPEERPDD
Put plainly: Radioligand competition binding (125I-ABA) to human A1 AR in CHO K1 cell membranes. The note with it: for Ki: Ki from competition binding, 125I-ABA, CHO K1 cell membranes; for A1/A2A: selectivity ratio A1 over A2A.

What is called EC50 is the concentration at which the effect is half-maximal.

Like-named read-outs stand apart in the source and are kept apart here.

Method for A3 AR: Sf9 cells were cultured in Grace's medium supplemented with 10% fetal bovine serum, 2.5 μg/ml amphotericin B and 50 μg/ml gentamycin in an atmosphere of 50% N2/50% O2. […] Infected cells were harvested 3 days post-infection and washed twice in insect PBS (PBS pH 6.3). Cells were then resuspended in lysis buffer (20 mM HEPES pH 7.5, 150 mM NaCl, 3 mM MgCl2, 1 mM β-mercaptoethanol (BME), 5 μg/mL leupeptin, 5 μg/mL pepstatin A, 1 μg/mL aprotinin, and 0.1 mM PMSF) and snap frozen for storage at −80° C. Cells were thawed on ice, brought to 30 mL total volume in lysis buffer, and burst by N2 cavitation (600 psi for 20 minutes). A low-speed centrifugation was performed to remove any unlysed cells (1000×g for 10 minutes), followed by a high-speed centrifugation (17,000×g for 30 minutes). The pellet from the final centrifugation was homogenized in buffer containing 20 mM HEPES pH 8, 100 mM NaCl, 1% glycerol, 2 μg/mL leupeptin, 2 μg/mL pepstatin A, 2 μg/mL Aprotinin, 0.1 mM PMSF, and 10 μM GDP using a small glass homogenizer followed by passage through a 26 gauge needle. Membranes were aliquoted, snap frozen in liquid N2, and stored at −80° C.
Binding experiments were performed in triplicate with 5 μg (A2A) or 25 μg (A1 and A3) membrane protein in a total volume of 0.1 mL HE buffer (20 mM HEPES and 1 mM EDTA) with 1 U/mL adenosine deaminase and 5 mM MgCl2 with or without 50 μM GTPγS. Membranes were incubated with radioligands at room temperature for three hours (for agonists) or two hours (for antagonists) in Millipore Multiscreene® 96-well GF/C filter plates and assays were terminated by rapid filtration on a cell harvester (Brandel, Gaithersburg, Md.) followed by 4×150 μl washes over 30 seconds with ice cold 10 mM Tris-HCl, pH 7.4, 10 mM MgCl2.

Take `CCNC(=O)[C@H]1O[C@@H](n2cnc3c(N)nc(C#CCC4CCC(C)(C(=O)OC)CC4)nc32)C(O)C1O` (single isomer, unassigned) [JR-3067A, 4-{3-[6-Amino-9-(5-ethylcarbamoyl-3,4-dihydroxytetrahydrofuran-2-yl)-9H-purin-2-yl]-prop-2-ynyl}-1-methyl-cyclohexanecarboxylic acid methyl ester]: the Ki at A3 AR (A3 ± SEM) is 0.039 ± 0.003 µM; in assay [1] (A2A ± SEM), 0.0013 ± 0.0008 µM; on human A1 AR (A1 ± SEM), 0.099 ± 0.027 µM. Also, the A3/A2A at A3 AR was found to be 30.0. Moreover, the “PMN oxid + roli (-log EC50)” value with human neutrophils was determined as 8.7. For the same compound, the “PMN oxid (-log EC50)” value with human neutrophils was 7.65. On human A1 AR, the A1/A2A was found to be 76.2.
Take `CCNC(=O)[C@H]1O[C@@H](n2cnc3c(N)nc(C#CC4(O)CCCCNC4=O)nc32)C(O)C1O` (single isomer, unassigned) [JR-3243A, 5-[6-Amino-2-(3-hydroxy-2-oxo-azepan-3-ylethynyl)purin-9-yl]-3,4-dihydroxytetrahydrofuran-2-carboxylic acid ethylamide]: the values for the Ki (at A3 AR (A3 ± SEM); in assay [1] (A2A ± SEM); at human A1 AR (A1 ± SEM)) were 0.0311 ± 0.0072 µM, 0.0119 ± 0.0013 µM and 0.0296 ± 0.0048 µM, respectively. Further, the A3/A2A on A3 AR worked out at 2.6. Further, in the assay on human neutrophils, the “PMN oxid + roli (-log EC50)” value is given as 7.65. For the same compound, the “PMN oxid (-log EC50)” value in the assay on human neutrophils came to 6.42. Further, at human A1 AR, the A1/A2A is 2.5.
As for `CCNC(=O)[C@H]1O[C@@H](n2cnc3c(N)nc(C#CCC4CCC(C(=O)O)CC4)nc32)C(O)C1O` (stereo in doubt) [ATL-146a, 4-{3-[6-Amino-9-(5-ethylcarbamoyl-3,4-dihydroxytetrahydrofuran-2-yl)-9H-purin-2-yl]-prop-2-ynyl}-cyclohexanecarboxylic acid], the Ki turned out to be 0.029 ± 0.01 µM on A3 AR (A3 ± SEM), 0.0296 ± 0.0012 µM in assay [1] (A2A ± SEM) and 0.189 ± 0.019 µM on human A1 AR (A1 ± SEM). Moreover, the A3/A2A on A3 AR came to 1.0. In addition, in the assay with human neutrophils, the 50% effective concentration (EC50) is 0.912 µM. Also, in the assay on human neutrophils, the “PMN oxid + roli (-log EC50)” value came out at 7.72. Besides, the A1/A2A at human A1 AR is recorded as 6.4.
Take `CCNC(=O)[C@H]1O[C@@H](n2cnc3c(N)nc(C#CC4(O)CCCCC4C)nc32)C(O)C1O` (single isomer, unassigned) [JR-3181B, 5-[6-Amino-2-(1-hydroxy-2-methyl-cyclohexylethynyl)-purin-9-yl]-3,4-dihydroxytetrahydrofuran-2-carboxylic acid ethylamide]: the Ki was found to be 0.0389 ± 0.0048 µM on A3 AR (A3 ± SEM), 0.0007 ± 7e-05 µM in assay [1] (A2A ± SEM) and 0.0242 ± 0.0062 µM at human A1 AR (A1 ± SEM). The A3/A2A on A3 AR worked out at 58.1. The “PMN oxid + roli (-log EC50)” value in the assay with human neutrophils turned out to be 9.67. Further, in the assay on human neutrophils, the “PMN oxid (-log EC50)” value turned out to be 8.57. The A1/A2A on human A1 AR is reported as 36.1.
Take `CCNC(=O)[C@H]1O[C@@H](n2cnc3c(N)nc(C#CCC4CCC(COC(C)=O)CC4)nc32)C(O)C1O` (stereo in doubt) [ATL-193, Acetic acid 4-{3-[6-amino-9-(5-ethylcarbamoyl-3,4-dihydroxytetrahydrofuran-2-yl)-9H-purin-2-yl]-prop-2-ynyl}-cyclohexylmethyl ester]: the values for the Ki (at A3 AR (A3 ± SEM); in assay [1] (A2A ± SEM); on human A1 AR (A1 ± SEM)) were 0.231 ± 0.091 µM, 0.0011 ± 0.0002 µM and 0.071 ± 0.014 µM, respectively. Also, the A3/A2A on A3 AR is 210.0. Besides, the 50% effective concentration (EC50) in the assay on human neutrophils is 0.00309 µM. For the same compound, the “PMN oxid + roli (-log EC50)” value in the assay with human neutrophils is listed as 9.46. The A1/A2A at human A1 AR is on record as 64.5.
As for `CCNC(=O)C1OC(n2cnc3c(N)nc(C#CC4(N)CCCCC4)nc32)C(O)C1O` (stereo not drawn) [JR-3205], the results for the Ki (at A3 AR (read-out: A3 ± SEM); in assay [1] (read-out: A2A ± SEM); on human A1 AR (read-out: A1 ± SEM)) were 0.0316 ± 0.0265 µM, 0.0034 ± 0.0003 µM and 0.0142 ± 0.00108 µM, respectively. Besides, the A3/A2A at A3 AR is on record as 9.3. For the same compound, the “PMN oxid + roli (-log EC50)” value in the assay with human neutrophils amounted to 8.08. For the same compound, the “PMN oxid (-log EC50)” value in the assay with human neutrophils turned out to be 7.22. The A1/A2A at human A1 AR was found to be 4.2.
`CCNC(=O)[C@H]1O[C@@H](n2cnc3c(N)nc(C#CCC4CCC(CN(C)C)CC4)nc32)C(O)C1O` (stereo in doubt) [JR-3023, 5-{6-Amino-2-[3-(4-dimethylaminomethyl-cyclohexyl)-prop-1-ynyl]-purin-9-yl}-3,4-dihydroxytetrahydrofuran-2-carboxylic acid ethylamide]: the values for the Ki (on A3 AR (A3 ± SEM); in assay [1] (A2A ± SEM); on human A1 AR (A1 ± SEM)) were 0.061 ± 0.006 µM, 0.0038 ± 0.002 µM and 0.014 ± 0.0008 µM, respectively. Also, the A3/A2A on A3 AR was 16.3. Moreover, the concentration for a half-maximal effect (EC50) in the assay on human neutrophils is 0.0427 µM. The “PMN oxid + roli (-log EC50)” value in the assay with human neutrophils turned out to be 8.66. Moreover, the A1/A2A at human A1 AR worked out at 3.7.
Take `CCNC(=O)[C@H]1O[C@@H](n2cnc3c(N)nc(C#CC4(O)CCCCC4C(C)(C)C)nc32)C(O)C1O` (stereo in doubt) [JR-3227, 5-[6-Amino-2-(2-tert-butyl-1-hydroxycyclohexylethynyl)purin-9-yl]-3,4-dihydroxytetrahydrofuran-2-carboxylic acid ethylamide]: the Ki at A3 AR (A3 ± SEM) was 0.05 µM; in assay [1] (A2A ± SEM), 0.0251 ± 0.0013 µM; at human A1 AR (A1 ± SEM), 0.536 µM. At A3 AR, the A3/A2A worked out at 2.0. Moreover, the EC50 with human neutrophils is 7.41 µM. In addition, the “PMN oxid + roli (-log EC50)” value with human neutrophils is 7.14. For the same compound, the A1/A2A on human A1 AR stood at 21.4.
`CCNC(=O)[C@H]1O[C@@H](n2cnc3c(N)nc(C#CC4(O)CCC(C(C)(C)C)CC4)nc32)C(O)C1O` (stereo in doubt) [JR-3203, 5-[6-Amino-2-(4-tert-butyl-1-hydroxycyclohexylethynyl)purin-9-yl]-3,4-dihydroxytetrahydrofuran-2-carboxylic acid ethylamide]: the Ki at A3 AR (A3 ± SEM) came out at 0.0433 ± 0.018 µM; in assay [1] (A2A ± SEM), 0.0015 ± 0.00022 µM; at human A1 AR (A1 ± SEM) it was 0.0147 ± 0.0022 µM. Also, the A3/A2A at A3 AR turned out to be 28.1. The EC50 with human neutrophils was 0.0141 µM. For the same compound, the “PMN oxid + roli (-log EC50)” value in the assay on human neutrophils is 9.11. For the same compound, the A1/A2A at human A1 AR is 9.5.
For `CCNC(=O)[C@H]1O[C@@H](n2cnc3c(N)nc(C#CC4(O)CCCCC4C)nc32)C(O)C1O` (single isomer, unassigned) [JR-3181A, 5-[6-Amino-2-(1-hydroxy-2-methyl-cyclohexylethynyl)-purin-9-yl]-3,4-dihydroxytetrahydrofuran-2-carboxylic acid ethylamide], the Ki on A3 AR (A3 ± SEM) stood at 0.0697 ± 0.043 µM; in assay [1] (A2A ± SEM) it was 0.0012 ± 0.00015 µM; at human A1 AR (A1 ± SEM) it was 0.0449 ± 0.0172 µM. Further, the A3/A2A on A3 AR came out at 59.1. For the same compound, the “PMN oxid + roli (-log EC50)” value in the assay with human neutrophils was 8.77. In the assay on human neutrophils, the “PMN oxid (-log EC50)” value came out at 7.73. In addition, the A1/A2A at human A1 AR was 38.1.
With `CCNC(=O)[C@H]1O[C@@H](n2cnc3c(N)nc(C#CC4(O)CCCC(C)C4)nc32)C(O)C1O` (stereo partly drawn) [JR-3179, 5-[6-Amino-2-(1-hydroxy-3-methyl-cyclohexylethynyl)-purin-9-yl]-3,4-dihydroxytetrahydrofuran-2-carboxylic acid ethylamide], the Ki was 0.0126 ± 0.0036 µM on A3 AR (A3 ± SEM), 0.0004 ± 5e-05 µM in assay [1] (A2A ± SEM) and 0.0085 ± 0.0003 µM on human A1 AR (A1 ± SEM). In addition, on A3 AR, the A3/A2A was 28.6. For the same compound, in the assay with human neutrophils, the concentration giving a half-maximal response (EC50) was 0.000661 µM. Further, the “PMN oxid + roli (-log EC50)” value with human neutrophils was 10.07. The A1/A2A at human A1 AR stood at 19.3.
On to `CCNC(=O)[C@H]1O[C@@H](n2cnc3c(N)nc(C#CCN4CCN(C(=O)OC(C)(C)C)CC4)nc32)C(O)C1O` (stereo in doubt) [JR-3281, 4-{3-[6-Amino-9-(5-ethylcarbamoyl-3,4-dihydroxytetrahydrofuran-2-yl)-9H-purin-2-yl]-prop-2-ynyl}-piperazine-1-carboxylic acid tert-butyl ester], for which the Ki at A3 AR (A3 ± SEM) came out at 0.038 µM; in assay [1] (A2A ± SEM), 0.00236 ± 0.0005 µM; on human A1 AR (A1 ± SEM), 0.00915 ± 0.00135 µM. Also, the A3/A2A at A3 AR is listed as 16.1. The EC50 with human neutrophils was 0.00646 µM. Moreover, the A1/A2A on human A1 AR is 3.9.
For the compound `CCNC(=O)C1OC(n2cnc3c(N)nc(C#CCC4CCNCC4)nc32)C(O)C1O` (stereo not drawn) [JR-3261], the results for the Ki (on A3 AR (read-out: A3 ± SEM); in assay [1] (read-out: A2A ± SEM); at human A1 AR (read-out: A1 ± SEM)) were 0.0867 ± 0.00375 µM, 0.0057 ± 0.0018 µM and 0.0473 ± 0.0116 µM, respectively. Also, at A3 AR, the A3/A2A is reported as 15.2. The “PMN oxid + roli (-log EC50)” value in the assay with human neutrophils turned out to be 7.6. In the assay on human neutrophils, the “PMN oxid (-log EC50)” value came to 6.4. In addition, at human A1 AR, the A1/A2A was 8.3.

(Values after patent US7737127B2, “2-propynyl adenosine analogs having A2A agonist activity and compositions thereof” (University of Virginia Patent Foundation, priority 2001, dated 2010).)
